Data taken from article PMC7169845, “Synthesis and Bioactivity of Phthalimide Analogs as Potential Drugs to Treat Schistosomiasis, a Neglected Disease of Poverty” (Pharmaceuticals, 2020).

| melting point | SMILES |
| --- | --- |
| 208 to 210 °C | Cc1ccc2c(c1)C(=O)N(C(CC(C)C)c1nc3ccccc3n1Cc1cn(-c3ccc(F)cc3)nn1)C2=O (centres unmarked) [6a, 2-(1-(1-((1-(4-Fluorophenyl)-1H-1,2,3-triazol-4-yl)methyl)-1H-benzo[d]imidazol-2-yl)-3-methylbutyl)-5-methylisoindoline-1,3-dione] |
| 187 to 189 °C | CC(c1nc2ccccc2n1Cc1cn(-c2ccccc2)nn1)N1C(=O)c2ccccc2C1=O (centres unmarked) [6a’, 2-(1-(1-((1-Phenyl-1H-1,2,3-triazol-4-yl)methyl)-1H-benzo[d]imidazol-2-yl)ethyl)isoindoline-1,3-dione] |
| 160 to 162 °C | Cc1ccc(-n2cc(Cn3c(C(CC(C)C)N4C(=O)c5ccc(C)cc5C4=O)nc4ccccc43)nn2)cc1 (centres unmarked) [6b, 5-Methyl-2-(3-methyl-1-(1-((1-(p-tolyl)-1H-1,2,3-triazol-4-yl)methyl)-1H-benzo[d]imidazol-2-yl)butyl)isoindoline-1,3-dione] |
| 215 to 217 °C | CC(c1nc2ccccc2n1Cc1cn(-c2c(F)c(F)c(F)c(F)c2F)nn1)N1C(=O)c2ccccc2C1=O (centres unmarked) [6b’, 2-(1-(1-((1-(Perfluorophenyl)-1H-1,2,3-triazol-4-yl)methyl)-1H-benzo[d]imidazol-2-yl)ethyl)isoindoline-1,3-dione] |
| 150 to 152 °C | Cc1ccc2c(c1)C(=O)N(C(CC(C)C)c1nc3ccccc3n1Cc1c[nH]nn1)C2=O (centres unmarked) [6c, 2-(1-(1-((1H-1,2,3-Triazol-4-yl)methyl)-1H-benzo[d]imidazol-2-yl)-3-methylbutyl)-5-methylisoindoline-1,3-dione] |
| 186 to 188 °C | CC(c1nc2ccccc2n1Cc1cn(-c2ccccc2F)nn1)N1C(=O)c2ccccc2C1=O (centres unmarked) [6c’, 2-(1-(1-((1-(2-Fluorophenyl)-1H-1,2,3-triazol-4-yl)methyl)-1H-benzo[d]imidazol-2-yl)ethyl)isoindoline-1,3-dione] |
| 128 to 130 °C | Cc1ccc2c(c1)C(=O)N(C(CC(C)C)c1nc3ccccc3n1Cc1cn(-c3c(F)c(F)c(F)c(F)c3F)nn1)C2=O (centres unmarked) [6d, 5-Methyl-2-(3-methyl-1-(1-((1-(perfluorophenyl)-1H-1,2,3-triazol-4-yl)methyl)-1H-benzo[d]imidazol-2-yl)butyl)isoindoline-1,3-dione] |
| 195 to 197 °C | CC(c1nc2ccccc2n1Cc1cn(-c2ccc(F)cc2F)nn1)N1C(=O)c2ccccc2C1=O (centres unmarked) [6d’, 2-(1-(1-((1-(2,4-Difluorophenyl)-1H-1,2,3-triazol-4-yl)methyl)-1H-benzo[d]imidazol-2-yl)ethyl)isoindoline-1,3-dione] |
| 218 to 220 °C | Cc1ccc2c(c1)C(=O)N(C(CC(C)C)c1nc3ccccc3n1Cc1cn(-c3ccc(C(F)(F)F)cc3)nn1)C2=O (centres unmarked) [6e, 5-Methyl-2-(3-methyl-1-(1-((1-(4-(trifluoromethyl)phenyl)-1H-1,2,3-triazol-4-yl)methyl)-1H-benzo[d]imidazol-2-yl)butyl)isoindoline-1,3-dione] |
| 181 to 183 °C | CC(c1nc2ccccc2n1Cc1cn(Cc2ccccc2)nn1)N1C(=O)c2ccccc2C1=O (centres unmarked) [6e’, 2-(1-(1-((1-Benzyl-1H-1,2,3-triazol-4-yl)methyl)-1H-benzo[d]imidazol-2-yl)ethyl)isoindoline-1,3-dione] |
| 142 to 144 °C | Cc1ccc2c(c1)C(=O)N(C(CC(C)C)c1nc3ccccc3n1Cc1cn(Cc3ccccc3)nn1)C2=O (centres unmarked) [6f, 2-(1-(1-((1-Benzyl-1H-1,2,3-triazol-4-yl)methyl)-1H-benzo[d]imidazol-2-yl)-3-methylbutyl)-5-methylisoindoline-1,3-dione] |
| 94 to 96 °C | CC(c1nc2ccccc2n1Cc1cn(-c2c(F)cccc2F)nn1)N1C(=O)c2ccccc2C1=O (centres unmarked) [6f’, 2-(1-(1-((1-(2,6-Difluorophenyl)-1H-1,2,3-triazol-4-yl)methyl)-1H-benzo[d]imidazol-2-yl)ethyl)isoindoline-1,3-dione] |
| 67 to 69 °C | Cc1ccc2c(c1)C(=O)N(C(CC(C)C)c1nc3ccccc3n1Cc1cn(-c3ccccc3)nn1)C2=O (centres unmarked) [6g, 5-Methyl-2-(3-methyl-1-(1-((1-phenyl-1H-1,2,3-triazol-4-yl)methyl)-1H-benzo[d]imidazol-2-yl)butyl)isoindoline-1,3-dione] |
| 97 to 99 °C | CC(c1nc2ccccc2n1Cc1c[nH]nn1)N1C(=O)c2ccccc2C1=O (centres unmarked) [6g’, 2-(1-(1-((1H-1,2,3-Triazol-4-yl)methyl)-1H-benzo[d]imidazol-2-yl)ethyl)isoindoline-1,3-dione] |
| 101 to 103 °C | COc1ccc(-n2cc(Cn3c(C(CC(C)C)N4C(=O)c5ccc(C)cc5C4=O)nc4ccccc43)nn2)cc1 (centres unmarked) [6h, 2-(1-(1-((1-(4-Methoxyphenyl)-1H-1,2,3-triazol-4-yl)methyl)-1H-benzo[d]imidazol-2-yl)-3-methylbutyl)-5-methylisoindoline-1,3-dione] |
| 222 to 224 °C | Cc1ccc2c(c1)C(=O)N(C(C)c1nc3ccccc3n1Cc1cn(-c3ccc(F)cc3)nn1)C2=O (centres unmarked) [6h’, 2-(1-(1-((1-(4-Fluorophenyl)-1H-1,2,3-triazol-4-yl)methyl)-1H-benzo[d]imidazol-2-yl)ethyl)-5-methylisoindoline-1,3-dione] |

| melting point | SMILES |
| --- | --- |
| 138 to 140 °C | Cc1ccc2c(c1)C(=O)N(C(CC(C)C)c1nc3ccccc3n1Cc1cn(-c3ccccc3F)nn1)C2=O (centres unmarked) [6i, 2-(1-(1-((1-(2-Fluorophenyl)-1H-1,2,3-triazol-4-yl)methyl)-1H-benzo[d]imidazol-2-yl)-3-methylbutyl)-5-methylisoindoline-1,3-dione] |
| 216 to 218 °C | Cc1ccc(-n2cc(Cn3c(C(C)N4C(=O)c5ccc(C)cc5C4=O)nc4ccccc43)nn2)cc1 (centres unmarked) [6i’, 5-Methyl-2-(1-(1-((1-(p-tolyl)-1H-1,2,3-triazol-4-yl)methyl)-1H-benzo[d]imidazol-2-yl)ethyl)isoindoline-1,3-dione] |
| 72 to 74 °C | Cc1ccc2c(c1)C(=O)N(C(CC(C)C)c1nc3ccccc3n1Cc1cn(-c3ccc(F)cc3F)nn1)C2=O (centres unmarked) [6j, 2-(1-(1-((1-(2,4-Difluorophenyl)-1H-1,2,3-triazol-4-yl)methyl)-1H-benzo[d]imidazol-2-yl)-3-methylbutyl)-5-methylisoindoline-1,3-dione] |
| 71 to 73 °C | Cc1ccc2c(c1)C(=O)N(C(CC(C)C)c1nc3ccccc3n1Cc1cn(-c3c(F)cccc3F)nn1)C2=O (centres unmarked) [6k, 2-(1-(1-((1-(2,6-Difluorophenyl)-1H-1,2,3-triazol-4-yl)methyl)-1H-benzo[d]imidazol-2-yl)-3-methylbutyl)-5-methylisoindoline-1,3-dione] |
| 100 to 102 °C | Cc1ccc2c(c1)C(=O)N(C(C)c1nc3ccccc3n1Cc1c[nH]nn1)C2=O (centres unmarked) [6k’, 2-(1-(1-((1H-1,2,3-Triazol-4-yl)methyl)-1H-benzo[d]imidazol-2-yl)ethyl)-5-methylisoindoline-1,3-dione] |
| 100 to 102 °C | CC(C)CC(c1nc2ccccc2n1Cc1cn(-c2c(F)c(F)c(F)c(F)c2F)nn1)N1C(=O)c2ccccc2C1=O (centres unmarked) [6l, 2-(3-Methyl-1-(1-((1-(perfluorophenyl)-1H-1,2,3-triazol-4-yl)methyl)-1H-benzo[d]imidazol-2-yl)butyl)isoindoline-1,3-dione] |
| 185 to 187 °C | Cc1ccc2c(c1)C(=O)N(C(C)c1nc3ccccc3n1Cc1cn(-c3ccccc3)nn1)C2=O (centres unmarked) [6l’, 5-Methyl-2-(1-(1-((1-phenyl-1H-1,2,3-triazol-4-yl)methyl)-1H-benzo[d]imidazol-2-yl)ethyl)isoindoline-1,3-dione] |
| 216 to 218 °C | CC(C)CC(c1nc2ccccc2n1Cc1cn(-c2ccc(C(F)(F)F)cc2)nn1)N1C(=O)c2ccccc2C1=O (centres unmarked) [6m, 2-(3-Methyl-1-(1-((1-(4-(trifluoromethyl)phenyl)-1H-1,2,3-triazol-4-yl)methyl)-1H-benzo[d]imidazol-2-yl)butyl)isoindoline-1,3-dione] |
| 142 to 144 °C | Cc1ccc2c(c1)C(=O)N(C(C)c1nc3ccccc3n1Cc1cn(Cc3ccccc3)nn1)C2=O (centres unmarked) [6m’, 2-(1-(1-((1-Benzyl-1H-1,2,3-triazol-4-yl)methyl)-1H-benzo[d]imidazol-2-yl)ethyl)-5-methylisoindoline-1,3-dione] |
| 107 to 109 °C | CC(C)CC(c1nc2ccccc2n1Cc1cn(-c2ccccc2F)nn1)N1C(=O)c2ccccc2C1=O (centres unmarked) [6n, 2-(1-(1-((1-(2-Fluorophenyl)-1H-1,2,3-triazol-4-yl)methyl)-1H-benzo[d]imidazol-2-yl)-3-methylbutyl)isoindoline-1,3-dione] |
| 236 to 238 °C | Cc1ccc2c(c1)C(=O)N(C(C)c1nc3ccccc3n1Cc1cn(-c3ccncc3)nn1)C2=O (centres unmarked) [6n’, 5-Methyl-2-(1-(1-((1-(pyridin-4-yl)-1H-1,2,3-triazol-4-yl)methyl)-1H-benzo[d]imidazol-2-yl)ethyl)isoindoline-1,3-dione] |
| 126 to 128 °C | CC(C)CC(c1nc2ccccc2n1Cc1cn(-c2ccc(F)cc2F)nn1)N1C(=O)c2ccccc2C1=O (centres unmarked) [6o, 2-(1-(1-((1-(2,4-Difluorophenyl)-1H-1,2,3-triazol-4-yl)methyl)-1H-benzo[d]imidazol-2-yl)-3-methylbutyl)isoindoline-1,3-dione] |
| 185 to 187 °C | Cc1ccc2c(c1)C(=O)N(C(C)c1nc3ccccc3n1Cc1cn(-c3ccccc3F)nn1)C2=O (centres unmarked) [6o’, 2-(1-(1-((1-(2-Fluorophenyl)-1H-1,2,3-triazol-4-yl)methyl)-1H-benzo[d]imidazol-2-yl)ethyl)-5-methylisoindoline-1,3-dione] |
| 198 to 200 °C | CC(C)CC(c1nc2ccccc2n1Cc1cn(-c2c(F)cccc2F)nn1)N1C(=O)c2ccccc2C1=O (centres unmarked) [6p, 2-(1-(1-((1-(2,6-Difluorophenyl)-1H-1,2,3-triazol-4-yl)methyl)-1H-benzo[d]imidazol-2-yl)-3-methylbutyl)isoindoline-1,3-dione] |
| 206 to 208 °C | Cc1ccc2c(c1)C(=O)N(C(C)c1nc3ccccc3n1Cc1cn(-c3ccc(F)cc3F)nn1)C2=O (centres unmarked) [6p’, 2-(1-(1-((1-(2,4-Difluorophenyl)-1H-1,2,3-triazol-4-yl)methyl)-1H-benzo[d]imidazol-2-yl)ethyl)-5-methylisoindoline-1,3-dione] |
| 114 to 116 °C | CCC(C)C(c1nc2ccccc2n1Cc1cn(-c2ccccc2F)nn1)N1C(=O)c2ccc(C)cc2C1=O (centres unmarked) [6q, 2-(1-(1-((1-(2-Fluorophenyl)-1H-1,2,3-triazol-4-yl)methyl)-1H-benzo[d]imidazol-2-yl)-2-methylbutyl)-5-methylisoindoline-1,3-dione] |
